According to patent US20250288583A1, “Treatment of Mucus Hypersecretion” (priority 2024, published 2025):

What was measured:
[1] = molecular target: T1, hTRPM8 channel (Homo sapiens, UniProt Q7Z2W7); test: TRPM8 receptor assay, calcium entry (Fluo-8, FLIPR) in transfected CHO cells; assay type: cell-based; conditions: for Potency Relative to L-menthol: ratio of TRPM8 EC50 values, menthol = 1.0
T1 construct: host or cells: CHO cells
Excerpt: FIG. 4. Agonist activities of TRPM8 analogs. […] The relative fluorescence (RF) unit on the ordinate represents calcium entry into transfected cells. […] The structures of these compounds are in Table 4.
The applicant has synthesized and examined a series of p-menthanecarboxamides conjugated to amino acid esters. […] This class of molecules is called N-alkylcarbonyl-amino acid esters. GlyOiPr is a p-menthanecarboxamide conjugate of glycine isopropyl (iPr) ester. It is similar in structure to WS-5, a cooling agent used as a food additive. WS-5 is the p-menthane-glycine ethyl (Et) ester, or GlyOEt. […] These in vitro effects were measured in CHO cells transfected with the hTRPM8 channel. Receptor activity was quantified using a Fluo-8 calcium kit and a Fluorescence Imaging Plate Reader ([…]™).

[2] = test system: ocular margins; test: Cooling duration bioassay on eyelids/ocular margins; assay type: in vivo, human; conditions: for Eyelids/Ocular Surface: Table 6, cooling duration, non-keratinized; for Ocular Surface: Table 7, Gly esters
Excerpt: (§1) FIG. 1. Comparison of cooling duration of various p-menthanecarboxamide analogs on philtrum skin versus ocular margins. The philtrum skin is keratinized, but the ocular margins are not. The test substances numbered 1 to 11 are: D-Ala-OiPr, Gly-OiPr, D-Ala-OEt, D-Ala-OMe, D-Ala-GlynPr, GlynPr, D-Ala-OnBu, GlynBu, GlyOEt, L-Ala-OEt, and N-Me-D-Ala-OEt, respectively. Two outliers (1 and 2) were identified as preferred embodiments because they preferentially cool the ocular margins. The nasal cavity surfaces like the ocular margins are not keratinized.
(§2) Cooling agents have been assayed in various ways depending on intended use. For example, for the skin the test substance can be applied on philtrum skin, using descriptions of coolness on a scale of 0 to 3. For the ocular surface, the active ingredient can be applied to the closed eyelids using a wipe. In the oral cavity, drug applications are on the posterior dorsal surface of the tongue. For the oropharyngeal surface, the cooling agent may be applied as an orally disintegrating tablet. The ability of a cooling agent to antagonize a noxious stimuli may also be tested, using nociception from citric acid or chili pepper sauce. Responses are usually measured using a Visual Analog Scale with a numerical rating. For nasal responses, however, such procedures have not been standardized. Some endpoints to consider are open and comfortable breathing, the presence or absence of sniffles, and the secretion of phlegm.

[3] = test system: philtrum skin; test: Cooling duration bioassay on philtrum skin; assay type: in vivo, human
Excerpt: as §1, §2

[4] = test system: oropharyngeal surface; test: Bioassay on oropharyngeal surface; assay type: in vivo, human; conditions: Table 7; grades 0, ++ without key
Excerpt: as §2

[5] = test system: oral cavity; test: Chili-pepper sauce test (oral cavity); assay type: in vivo, human; parameters: scale not given here; conditions: Table 6; grades 0, +, ++ without key
Excerpt: as §2

[6] = molecular target: T2, TRPV1 (Homo sapiens, UniProt Q8NER1); test: TRPV1 specificity assay in transfected cells; assay type: cell-based; conditions: FIG. 5; capsaicin positive control
T2 construct: expressed in transfected cells

[7] = test system: nasal mucus secretion; test: Range-finding study of CPS-125, Up-Down method, nasal mucus secretion as endpoint; assay type: in vivo, human
Excerpt: The recognition that inhibition of mucus hypersecretion might be a valuable and unique pharmacological attribute of TRPM8 agonists prompted the applicant to re-examine such compounds in his inventory. CPS-125 was described by Wei in U.S. Pat. No. 7,417,048 (August 2008), and its structure is in Table 10. This molecule incorporates a sulfamoyl group to increase water solubility and is sulfadiazine coupled to p-menthanecarboxamide. In a range-finding study, CPS-125 was suspended in 1% Ethanol/2% Polysorbate 80/saline and titrated using the Up-Down method of Dixon (Annu. Rev. Pharmacol. Toxicol. 20:441-462.1980) with nasal mucus secretion as the endpoint. The effective concentration for reducing secretions by +80% was 8 mg/ml of CPS-125. […] Such heterocyclic structures include pyrrole, furan, oxane, thiophene, thioxazole, and oxazole derivatives.
CPS-125 was active when administered as drops or in a manually activated spray. The nose is pinched and released after instilling 0.3 to 0.5 mL into the nostrils. After pinch and release, the reflex sniff or snort enhances delivery of the drops to the ostiomeatal complex. Using a power-assisted nebulizer enhances delivery of CPS-125. CPS-125's molecular weight of 416 Daltons is the highest of the tested compounds. Normally, large lipophilic molecules are not expected to penetrate secretions to reach target. Apparently, the sulfamoyl group confers the qualities of penetration, stability, and retention to make it a viable lead candidate for inhibition of mucus hypersecretion.

[8] = test system: nasal cavity; test: Nebulizer screening of TRPM8 agonists for sensations in the nasal cavity; assay type: in vivo, human; conditions: NasoNeb nebulizer, 3 to 5 sec per nostril
Procedure: Formulations for nebulization with NasoNeb® used a standard recipe of (Table 8): 1% of the active ingredient (1 to 10 mg/mL), 2% Tween 80 (Polysorbate 80), 1 to 5% ethanol, and made up to 100% with water. The mixture is centrifuged in a FlackTek, Inc., Speedmixer for at least 10 min at 3000 rpm. The Speedmixer spins the sample in 3 dimensions. The result is a white homogeneous liquid suspension with some of the solids now dissolved. For dosing, ˜2 to 3 mL is loaded into the canister of the nebulizer. The nebulizer nozzle tip is placed in the nostril and activated by pressing a button for 3 to 5 sec using a clock timer. […] For D-Ala-OiPr a 5-sec activation will deliver 2*0.73 mL*2 mg/ml, or a total dose of 3 mg per nose. The nasal cavity is relatively tolerant to exogenous agents with irritant properties, as many rinses are used for rhinitis and sinusitis. For some p-menthanecarboxamide analogs, a 2% (20 mg/mL) solution is possible and contemplated. An ideal agent reproduces a comfortable cooling or sensations of negative heat flux in the nasal cavity. […] Heat flux refers to the rate of heat transfer per unit area. The sinonasal cavity mucosa differs from philtrum skin and ocular margins in histology, so the choice of the right molecule must be made by experiment. The TRPM8 agonists were chosen for screening using a nebulizer for delivery. The NasoNeb system is powerful and effective for the OMC (FIG. 3). The delivery time per nostril in three to five seconds. […] These parameters were estimated in the initial trials: • Onset and offset of cooling sensations in the nasal cavity. • The intensity and quality of the cooling sensations in the nasal cavity. • Presence of effects such as sneezing or cough after dosing. • Degree of nasal stuffiness on a scale of 0 to 5. • Degree of rhinorrhea and phlegm in nasal secretions. • Questions regarding comfort and sleep at night.

[9] = test system: ostiomeatal complex; test: Case studies: nebulized cooling agent in subjects with rhinitis and rhinosinusitis; assay type: in vivo, human; conditions: NasoNeb delivery in subjects with rhinosinusitis
Excerpt: Eight subjects with rhinitis and rhinosinusitis volunteered to test cooling agents delivered with the NasoNeb® nebulizer (FIG. 3). The results were clear, robust, and evident. No statistical analysis was necessary. In a 3 to 5-day course of nebulization t.i.d., all subjects reported the ability to manage and control stuffed-up breathing in their activities. All reported comfortable sleep. The sounds of sniffling and congestion of the nose (“sniffles”), snorting, or gurgling were still present, but to a lesser degree. The subject felt it was easier to blow out liquids from the nasal cavity onto a tissue, and the volume and frequency of blowing decreased. Viscous yellow mucus was less in volume and density. The number of wipes deposited daily into a waste basket decreased by >50%. The subjects-were cheerful and enthusiastic because nasal discomfort was under control. As one subject remarked: “The stuffed-up nose problem is now history!” Severat of these cases are reported below as “Case Studies.”
The subject was given a NasoNeb® nebulizer (unavailable in China) and five individual bottles containing 15 mL of a 1% GlyOiPr solution (suspended in 2% Tween 80, 5% ethanol, and 92% water). They were shown how to load the NasoNeb canister with about 2 mL of liquid and activate the device for a 3-second dose into each nostril. The recommended dosage was three times a day, starting in the morning and at about 6-hour intervals, and for five days.
The subject agreed to using the NasoNeb nebulizer with a cooling agent. They were given a NasoNeb nebulizer and three bottles, each containing 15 ml of a 1% GlyOiPr solution (suspended in 2% Tween 80, 5% ethanol, and 92% water). They were shown how to load the NasoNeb canister with about 2 mL of liquid and activate the device for a 3-second dose into each nostril. The recommended dosage was three times a day, starting in the morning and at about 6-hour intervals, and for five days. After a 5-day trial, the subject noted a significant improvement in sleep and comfortable breathing. […] Their headaches were gone, and their appetite improved. They were advised to continue using the Nebulizer/coolant for another week and then on an as-needed basis. Their family has noticed that the subject has become less withdrawn, more engaging, and interested in their surroundings.
The subject volunteered for a trial with GlyOiPr. They were given a NasoNeb® machine and a plastic squeeze bottle containing 50 mL of GlyOiPr at 3 mg/mL suspended in 1% ethanol/2% polysorbate 80. They learned how to load the canister and activate the pump. Then, they were instructed to rinse their nose thoroughly first thing in the morning and then use the Nebulizer at 5 sec per nostril to deliver the solution. The procedure was to be repeated at 2 hours and 5 hours later to total three daily activations. The subject was interviewed after dosing for three days. They said breathing was much easier at night after the dosing, and they slept well. Nasal secretions were still present but less in volume. […] They were encouraged to use the Nebulizer as needed but not to exceed three daily doses. Three weeks after the start of the experiment, they reported that they were in complete control of their rhinitis. They would do a single dose at night before sleep and one in the morning when needed. They no longer felt congested, and the headaches were gone. The slimy phlegm in the nostrils was gone, and crusting was absent. Their nose felt clean. Their social life improved.
Their main complaint was episodes at night when they would wake up and not be able to breathe comfortably. Sleep apnea and lung disorders were ruled out, and the diagnosis was rhinosinusitis. This was confirmed by a computerized tomography scan and endoscopic examination by a qualified ENT specialist. They agreed to test the preferred embodiments GlyOnPr, GlyOiPr, D-Ala-OnPr, and D-Ala-OiPr systematically, one after the other.

[10] = Table 6, cooling duration, keratinized skin

T1 sequence (Q7Z2W7 whole entry): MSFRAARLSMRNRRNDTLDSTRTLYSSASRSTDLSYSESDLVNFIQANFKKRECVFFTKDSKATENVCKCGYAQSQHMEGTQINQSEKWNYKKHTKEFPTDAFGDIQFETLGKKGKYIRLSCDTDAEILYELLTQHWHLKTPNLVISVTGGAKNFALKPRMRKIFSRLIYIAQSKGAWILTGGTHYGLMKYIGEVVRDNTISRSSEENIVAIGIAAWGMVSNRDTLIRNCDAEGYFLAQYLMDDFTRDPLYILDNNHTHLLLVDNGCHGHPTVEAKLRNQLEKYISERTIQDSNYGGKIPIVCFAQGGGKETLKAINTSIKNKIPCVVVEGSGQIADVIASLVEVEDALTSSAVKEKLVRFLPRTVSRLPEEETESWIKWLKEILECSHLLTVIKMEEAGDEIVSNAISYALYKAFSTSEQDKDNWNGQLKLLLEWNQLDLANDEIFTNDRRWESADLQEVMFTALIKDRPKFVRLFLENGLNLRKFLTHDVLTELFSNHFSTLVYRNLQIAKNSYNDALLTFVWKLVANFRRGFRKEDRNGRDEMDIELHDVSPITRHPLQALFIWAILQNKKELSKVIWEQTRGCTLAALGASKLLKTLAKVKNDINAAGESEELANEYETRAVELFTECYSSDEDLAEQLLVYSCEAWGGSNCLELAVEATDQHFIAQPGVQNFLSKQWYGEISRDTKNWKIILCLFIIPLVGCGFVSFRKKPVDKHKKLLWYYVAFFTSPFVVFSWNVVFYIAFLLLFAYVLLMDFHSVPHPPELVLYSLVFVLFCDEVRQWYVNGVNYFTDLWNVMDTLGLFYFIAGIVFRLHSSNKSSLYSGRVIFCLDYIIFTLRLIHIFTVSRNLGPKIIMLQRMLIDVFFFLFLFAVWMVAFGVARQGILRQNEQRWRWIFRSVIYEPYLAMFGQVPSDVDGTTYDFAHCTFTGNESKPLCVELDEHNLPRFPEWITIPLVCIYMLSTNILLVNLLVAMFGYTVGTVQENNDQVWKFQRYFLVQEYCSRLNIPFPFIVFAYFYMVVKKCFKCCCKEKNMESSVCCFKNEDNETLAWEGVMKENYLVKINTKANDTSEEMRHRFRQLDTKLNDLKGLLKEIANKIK
T2 sequence (Q8NER1 whole entry, species assumed): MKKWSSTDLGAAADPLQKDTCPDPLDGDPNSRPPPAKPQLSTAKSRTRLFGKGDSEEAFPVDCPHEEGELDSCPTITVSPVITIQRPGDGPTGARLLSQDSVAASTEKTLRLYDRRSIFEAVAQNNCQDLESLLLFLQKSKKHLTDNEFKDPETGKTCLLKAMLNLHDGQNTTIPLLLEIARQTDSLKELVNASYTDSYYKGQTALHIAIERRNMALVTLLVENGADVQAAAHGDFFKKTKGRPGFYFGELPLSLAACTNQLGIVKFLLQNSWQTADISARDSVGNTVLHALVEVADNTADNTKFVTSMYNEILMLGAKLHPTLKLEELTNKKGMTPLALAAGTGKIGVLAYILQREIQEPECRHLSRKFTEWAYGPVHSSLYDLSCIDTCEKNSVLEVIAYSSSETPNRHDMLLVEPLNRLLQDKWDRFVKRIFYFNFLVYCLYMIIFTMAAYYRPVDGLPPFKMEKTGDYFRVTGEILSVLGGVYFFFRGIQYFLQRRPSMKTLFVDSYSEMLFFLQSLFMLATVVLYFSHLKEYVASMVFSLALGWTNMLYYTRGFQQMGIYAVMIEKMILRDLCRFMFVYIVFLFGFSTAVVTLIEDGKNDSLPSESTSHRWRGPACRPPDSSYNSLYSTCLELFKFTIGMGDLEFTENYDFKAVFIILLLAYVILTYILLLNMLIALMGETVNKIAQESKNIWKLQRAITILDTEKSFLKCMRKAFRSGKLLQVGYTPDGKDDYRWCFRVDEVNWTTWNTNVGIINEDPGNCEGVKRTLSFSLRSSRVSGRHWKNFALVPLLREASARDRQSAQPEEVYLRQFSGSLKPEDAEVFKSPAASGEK

SMILES | EC50 ([1]; CHO cells transfected with hTRPM8, Fluo-8 calcium kit, FLIPR) | Potency Relative to L-menthol [1] | Eyelids/Ocular Surface [2] | Ocular Surface [2] | Philtrum Skin [3, 10] | Philtrum Skin ([3]; Table 7, Gly esters) | Oropharyngeal Surface [4] | Chili-Pepper Sauce Test [5] | Response of cells transfected with TRPV1 [6] | Activity when administered as drops or in a manually activated spray ([7]; 0.3 to 0.5 mL into the nostrils, pinch and release) | Duration of action among the 25+ compounds tested ([7]; in vivo) | Effective concentration for reducing secretions by +80% ([7]; suspended in 1% Ethanol/2% Polysorbate 80/saline, Up-Down method of Dixon) | Sensory effects after delivery into the nasal cavity [8] | Relief of stuffiness and breathing [9] | Increase of cooling on raising the concentration ([2]; from 1 mg/ml to 2 mg/ml) | Increase of cooling on raising the concentration ([2]; from 1 mg/ml to 5 mg/ml)
CCCCOC(=O)CNC(=O)[C@@H]1C[C@H](C)CC[C@H]1C(C)C [GlyOnBu, [((1R,2S,5R)-2-isopropyl-5-methyl-cyclohexanecarbonyl)-amino]-acetic acid n-butyl ester] | 1360 nM | 2.8 | 35 min | 35 min | 38 min | 38 min | 0 | 0 | – | – | – | – | – | – | – | –
COc1cc(CNC(=O)CCCC/C=C/C(C)C)ccc1O [capsaicin, reference compound] | – | – | – | – | – | – | – | – | respond | – | – | – | – | – | – | –
CC(C)[C@@H]1CC[C@@H](C)C[C@H]1C(=O)Nc1ccc(S(=O)(=O)Nc2ncccn2)cc1 [CPS-125, (1R,2S,5R)-2-Isopropyl-5-methyl-cyclohexanecarboxylic acid [4-(pyrimidin-2-ylsulfamoyl)-phenyl]-amide] | – | – | – | – | – | – | – | – | – | active | longest duration of action | 8 mg/mL | – | – | – | –
CCCOC(=O)CNC(=O)[C@@H]1C[C@H](C)CC[C@H]1C(C)C [GlyOnPr, [((1R,2S,5R)-2-isopropyl-5-methyl-cyclohexanecarbonyl)-amino]-acetic acid n-propyl ester] | – | – | 54 min | 54 min | 42 min | 42 min | 0 | 0 | – | – | – | – | About the same duration of action as GlyOiPr, but less refreshing. | provided relief | – | –
CCOC(=O)CNC(=O)[C@@H]1C[C@H](C)CC[C@H]1C(C)C [GlyOEt, [((1R,2S,5R)-2-isopropyl-5-methyl-cyclohexanecarbonyl)-amino]-acetic acid ethyl ester, reference compound] | – | 10.6 | 15 min | 15 min | 24 min | 24 min | 0 | 0 | – | – | – | – | – | – | 15 min | 22 min
